Measured values taken from publication PMC13110330, “Design, Synthesis, and Evaluation of New Polyhydroxylated B is‐Chalcones as Potential COX‐2 Selective Inhibitors” (Chemmedchem, 2026).

Tests used:
human recombinant COX‐1 = target: T1, human recombinant COX‐1 (Homo sapiens, UniProt P23219); assay: In vitro fluorometric COX‐1 inhibitory assay; type: biochemical; settings: mean ± SEM; for IC50: human recombinant enzyme
T1 construct: purchased Sigma Chemical Co. (St. Louis, MO, USA)
Method: The COX‐1/2 inhibitory potential of bis‐chalcones was assessed with an in vitro fluorometric assay, based on the protocol outlined by Sigma‐Aldrich in their COX‐2 Inhibitor Screening Kit.
To conduct the assay, human recombinant COX‐1 or COX‐2 (2.5 ng/µL) was combined with diluted hemin (1 µM), COX cofactor, and ampliflu red (100 µM) in assay buffer (trizma hydrochloride pH = 8.0 and EDTA 0.1 µM).

human recombinant COX‐2 = target: T2, human recombinant COX‐2 (Homo sapiens, UniProt P35354); assay: In vitro fluorometric COX‐2 inhibitory assay and selectivity index; type: biochemical; settings: for IC50: human recombinant enzyme
T2 construct: purchased Sigma Chemical Co. (St. Louis, MO, USA)
T2 sequence (P35354 18-604): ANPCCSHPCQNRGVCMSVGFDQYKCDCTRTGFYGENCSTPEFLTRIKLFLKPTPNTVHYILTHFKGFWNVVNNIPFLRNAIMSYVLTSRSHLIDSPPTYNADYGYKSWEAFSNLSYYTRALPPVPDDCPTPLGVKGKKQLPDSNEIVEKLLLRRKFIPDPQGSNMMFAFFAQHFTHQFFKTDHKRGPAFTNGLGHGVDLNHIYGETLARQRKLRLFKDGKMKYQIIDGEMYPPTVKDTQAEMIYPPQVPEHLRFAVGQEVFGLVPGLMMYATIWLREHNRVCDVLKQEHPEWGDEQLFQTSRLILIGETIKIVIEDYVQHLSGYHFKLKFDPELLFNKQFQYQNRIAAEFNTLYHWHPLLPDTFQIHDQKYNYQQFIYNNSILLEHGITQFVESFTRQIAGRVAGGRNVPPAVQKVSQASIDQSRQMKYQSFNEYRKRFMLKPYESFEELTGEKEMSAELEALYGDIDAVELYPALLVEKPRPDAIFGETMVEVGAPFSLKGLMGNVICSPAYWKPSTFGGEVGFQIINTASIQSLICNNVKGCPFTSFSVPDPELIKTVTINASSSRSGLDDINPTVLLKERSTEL

COX‐2 = test system: COX‐2; design: method as in PMID 824724; settings: measured in rabbit cell; cited from earlier work
[1] = at 100 μM, highest tested concentration
[2] = at 100 μM, highest tested concentration, mean ± SEM
[3] = SI = % inhibition COX‐2 / % inhibition COX‐1 at 100 µM

T1 sequence (P23219 24-599): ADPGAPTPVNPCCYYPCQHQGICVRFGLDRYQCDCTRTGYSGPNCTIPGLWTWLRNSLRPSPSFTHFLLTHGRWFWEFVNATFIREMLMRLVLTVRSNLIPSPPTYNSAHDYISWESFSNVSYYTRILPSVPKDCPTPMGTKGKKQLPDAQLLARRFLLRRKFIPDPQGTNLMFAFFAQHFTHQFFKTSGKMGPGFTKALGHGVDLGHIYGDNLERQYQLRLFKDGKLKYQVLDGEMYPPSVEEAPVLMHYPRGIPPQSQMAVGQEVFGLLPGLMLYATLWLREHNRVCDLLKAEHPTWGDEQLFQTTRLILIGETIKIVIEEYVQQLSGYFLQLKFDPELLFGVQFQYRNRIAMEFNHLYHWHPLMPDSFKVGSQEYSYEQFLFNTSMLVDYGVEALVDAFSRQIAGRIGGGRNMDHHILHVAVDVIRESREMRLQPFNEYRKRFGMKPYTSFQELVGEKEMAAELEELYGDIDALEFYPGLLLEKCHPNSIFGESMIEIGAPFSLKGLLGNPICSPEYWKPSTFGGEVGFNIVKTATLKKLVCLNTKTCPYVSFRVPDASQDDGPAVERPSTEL

| Compound | inhibition at 100 µM (human recombinant COX‐1; [1]) [%] | inhibition at 100 µM (human recombinant COX‐2; [2]) [%] | also measured |
| --- | --- | --- | --- |
| COc1ccc(/C=C/C(=O)c2c(OC)cc(OC)c(C(=O)/C=C/c3ccc(OC)c(OC)c3)c2OC)cc1OC [Compound 10, (2E,2′E)−1,1′‐(2,4,6‐Trimethoxy‐1,3‐phenylene)bis[3‐(3,4‐dimethoxyphenyl)prop‐2‐en‐1‐one]] | < 30 | < 30 | – |
| COc1ccc(/C=C/C(=O)c2c(OC)cc(OC)c(C(=O)/C=C/c3ccc(OC)cc3)c2OC)cc1 [Compound 11, (2E,2′E)−1,1′‐(2,4,6‐Trimethoxy‐1,3‐phenylene)bis[3‐(4‐methoxyphenyl)prop‐2‐en‐1‐one]] | < 30 | < 30 | – |
| COc1cc(OC)c(C(=O)/C=C/c2ccc(O)cc2)c(OC)c1C(=O)/C=C/c1ccc(O)cc1 [Compound 12, (2E,2′E)−1,1′‐(2,4,6‐Trimethoxy‐1,3‐phenylene)bis[3‐(4‐hydroxyphenyl)prop‐2‐en‐1‐one]] | ~50 | ~50 | Selectivity index (SI) (human recombinant COX‐2; [3]): 0.9 |
| COc1cc(/C=C/C(=O)c2c(OC)cc(OC)c(C(=O)/C=C/c3ccc(O)c(OC)c3)c2OC)ccc1O [Compound 13, (2E,2′E)−1,1′‐(2,4,6‐Trimethoxy‐1,3‐phenylene)bis[3‐(4‐hydroxy‐3‐methoxyphenyl)prop‐2‐en‐1‐one]] | – | – | IC50 (human recombinant COX‐1): 24 ± 3 µM; Selectivity index (SI) (human recombinant COX‐2; SI = IC50 COX‐1 / IC50 COX‐2): 4.4; IC50 (human recombinant COX‐2; mean ± SEM): 5.5 ± 0.7 µM |
| COc1cc(OC)c(C(=O)/C=C/c2ccc(Br)cc2)c(OC)c1C(=O)/C=C/c1ccc(Br)cc1 [Compound 14, (2E,2′E)−1,1′‐(2,4,6‐Trimethoxy‐1,3‐phenylene)bis[3‐(4‐bromophenyl)prop‐2‐en‐1‐one]] | < 30 | < 30 | – |
| COc1cc(OC)c(C(=O)/C=C/c2cccc(Cl)c2)c(OC)c1C(=O)/C=C/c1cccc(Cl)c1 [Compound 15, (2E,2′E)−1,1′‐(2,4,6‐Trimethoxy‐1,3‐phenylene)bis[3‐(3‐chlorophenyl)prop‐2‐en‐1‐one]] | < 30 | < 30 | – |
| COCOc1cc(OCOC)c(C(=O)/C=C/c2ccc(OC)c(OC)c2)c(OCOC)c1C(=O)/C=C/c1ccc(OC)c(OC)c1 [Compound 19, (2E,2′E)−1,1′‐[2,4,6‐Tris(methoxymethoxy)−1,3‐phenylene]bis[3‐(3,4‐dimethoxyphenyl)prop‐2‐en‐1‐one]] | < 30 | < 30 | – |
| COCOc1cc(OCOC)c(C(=O)/C=C/c2ccc(OC)cc2)c(OCOC)c1C(=O)/C=C/c1ccc(OC)cc1 [Compound 20, (2E,2′E)−1,1′‐[2,4,6‐Tris(methoxymethoxy)−1,3‐phenylene]bis[3‐(4‐methoxyphenyl)prop‐2‐en‐1‐one]] | < 30 | < 30 | – |
| COCOc1ccc(/C=C/C(=O)c2c(OCOC)cc(OCOC)c(C(=O)/C=C/c3ccc(OCOC)c(OC)c3)c2OCOC)cc1OC [Compound 21, (2E,2′E)−1,1′‐[2,4,6‐Tris(methoxymethoxy)−1,3‐phenylene]bis{3‐[3‐methoxy‐4‐(methoxymethoxy)phenyl]prop‐2‐en‐1‐one}] | < 30 | < 30 | – |
| COCOc1cc(OCOC)c(C(=O)/C=C/c2ccc(Br)cc2)c(OCOC)c1C(=O)/C=C/c1ccc(Br)cc1 [Compound 22, (2E,2′E)−1,1′‐[2,4,6‐Tris(methoxymethoxy)−1,3‐phenylene]bis(3‐(4‐bromophenyl)prop‐2‐en‐1‐one)] | < 30 | < 30 | – |
| COCOc1ccc(/C=C/C(=O)c2c(OCOC)cc(OCOC)c(C(=O)/C=C/c3ccc(OCOC)cc3)c2OCOC)cc1 [Compound 25, (2E,2′E)−1,1′‐[2,4,6‐Tris(methoxymethoxy)−1,3‐phenylene]bis{3‐[4‐(methoxymethoxy)phenyl]prop‐2‐en‐1‐one}] | < 30 | < 30 | – |
| COc1ccc(/C=C/C(=O)c2c(O)cc(O)c(C(=O)/C=C/c3ccc(OC)c(OC)c3)c2O)cc1OC [Compound 26, (2E,2′E)−1,1′‐(2,4,6‐Trihydroxy‐1,3‐phenylene)bis[3‐(3,4‐dimethoxyphenyl)prop‐2‐en‐1‐one]] | 40 to 50 | 40 to 50 | Selectivity index (SI) (human recombinant COX‐2; [3]): 0.8 |
| COc1ccc(/C=C/C(=O)c2c(O)cc(O)c(C(=O)/C=C/c3ccc(OC)cc3)c2O)cc1 [Compound 27, (2E,2′E)−1,1′‐(2,4,6‐Trihydroxy‐1,3‐phenylene)bis[3‐(4‐methoxyphenyl)prop‐2‐en‐1‐one]] | – | – | IC50 (human recombinant COX‐1): 48 ± 2 µM; Selectivity index (SI) (human recombinant COX‐2; SI = IC50 COX‐1 / IC50 COX‐2): 1.2; IC50 (human recombinant COX‐2; mean ± SEM): 44 ± 3 µM |
| COc1cc(/C=C/C(=O)c2c(O)cc(O)c(C(=O)/C=C/c3ccc(O)c(OC)c3)c2O)ccc1O [Compound 28, (2E,2′E)−1,1′‐(2,4,6‐Trihydroxy‐1,3‐phenylene)bis[3‐(4‐hydroxy‐3‐methoxyphenyl)prop‐2‐en‐1‐one]] | – | – | IC50 (human recombinant COX‐1): 37 ± 4 µM; Selectivity index (SI) (human recombinant COX‐2; SI = IC50 COX‐1 / IC50 COX‐2): 2.6; IC50 (human recombinant COX‐2; mean ± SEM): 14.6 ± 0.5 µM |
| O=C(/C=C/c1ccc(Br)cc1)c1c(O)cc(O)c(C(=O)/C=C/c2ccc(Br)cc2)c1O [Compound 29, (2E,2′E)−1,1′‐(2,4,6‐Trihydroxy‐1,3‐phenylene)bis[3‐(4‐bromophenyl)prop‐2‐en‐1‐one]] | 40 to 50 | 40 to 50 | Selectivity index (SI) (human recombinant COX‐2; [3]): 1.1; COX‐2 IC50, µM or Inhibition, % (human recombinant COX‐2; cell carries superscript 100 μM (highest tested concentration)): 58 ± 3 µM ^100 μM |
| Cc1c(Cl)cccc1Nc1ccccc1C(=O)O [tolfenamic acid] | – | – | IC50 (COX‐2): 0.64 µM |
| (2E,2′E)−1,1′‐{2,4,6‐Tris[(2‐methoxyethoxy)methoxy]−1,3‐phenylene}bis(3‐{3,4‐bis[(2‐methoxyethoxy)methoxy]phenyl}prop‐2‐en‐1‐one) [Compound 24] | – | – | COX‐1 Inhibition, % (human recombinant COX‐1; [1]): <30% ^100 μM; COX‐2 Inhibition, % (human recombinant COX‐2; [2]): <30% ^100 μM |
